Read-outs that look alike come from different tables or passages of the source.
Assays:
H460 cells = test: Antiproliferation assay (Alamar Blue), H460 cells; format: cell-based
Protocol: (§1) To determine the effect of lonidamine and analogs thereof on cell proliferation, the antiproliferative activity of these compounds was tested in a multi-well Alamar Blue based assay (at 2 h and 3 days). Cell growth in the presence and absence of the test compound (compounds 1-22) was compared, as measured by a fluorescence plate reader at excitation 550 nm and emission 590 nm (see Biosource International Inc., Tech Application Notes, Use of Alamar Blue in the measurement of Cell Viability and Toxicity, Determining IC50). H460 cells (ATCC HTB-177 ([…]), 4,000 cells/well/200 μl) and LNCap cells (ATCC CRL-1740, 6,000 cells/well/200 μl) were seeded in a 96 well plate in RPMI medium (Invitrogen Corporation, Carlsbad, Calif.). After 24 hours, these plates were divided into 3 groups—Control group, 2 h treatment group and 3 day treatment group. In the 2 h treatment group, after 2 h the cells were rinsed to remove the test compound and incubated for 3 days, followed by staining with AlamarBlue. The cells in the 3 day treatment group were incubated for 3 days, followed by staining with AlamarBlue. In the Control group, AlamarBlue was added to the plate at (i) day 0 and (ii) day 3 and measured to establish the control reading.

LNCaP cells = test: Antiproliferation assay (Alamar Blue), LNCaP cells; format: cell-based, human; details: 3 day treatment, read-out: GI50 LNCaP cell 3days
Protocol: as §1

PWR-1E cells [1] = test: Antiproliferation assay, PWR-1E cells (Example 48); format: cell-based; details: read-out: IC50 PWR-1E cell
Protocol: as §1
The effect of lonidamine and analogs thereof on cell proliferation in PWR-1E cells (ATCC CRL-11611) was determined in an antiproliferative assay using PWR-1E cells (5000 cells/well) in Keratinocyte SFM medium (Gibco Products, Invitrogen Corporation, Carlsbad, Calif.) according to the procedure detailed in Example 47 above.

PWR-1E cells [2] = test: Antiproliferation assay 3 days, PWR-1E cells (Example 49); format: cell-based; details: read-out: PWR1e cell line IC50
Protocol: (§2) To determine the effect of lonidamine analogs thereof on cell proliferation, the antiproliferative activity of these compounds was tested in a multi-well Alamar Blue based assay (at 3 days). Cell growth in the presence and absence of the test compound was compared, as measured by a fluoresence plate reader at excitation 550 nm and emission 590 nm (see Biosource International Inc., Tech Application Notes, Use of Alamar Blue in the measurement of Cell Viability and Toxity, Determining IC50). The following cell lines were tested: PWR-1E cells ((ATCC CRL-11611), 3500 cells/well/200 μl in Keratinocyte SFM medium (Gibco Products, Invitrogen Corporation, Carlsbad, Calif.)); DU-145 cells ((ATCC HTB-81), 4000 cells/well/200 μl in MEM Eagles medium (ATCC, Manassas, Va.)); PC3 cells ((ATCC CRL-1435), 4000 cells/200 μl in Modified HAM's F12 medium (ATCC, Manassas, Va.)); PNt2 cells ((Sigma-Aldrich, 95012613-1 VL), 4000 cells/well/200 μl in RPMI medium (Gibco Products, Invitrogen Corporation, Carlsbad, Calif.), BPH-1 ((DSMZ ACC-143), 4000 cells/well/200 μl in RPMI medium (Gibco Products, Invitrogen Corporation, Carlsbad, Calif), and NCI-H460 cells ((ATCC HTB-177), 4000 cells/well/200 μl in RPMI medium (Gibco Products, Invitrogen Corporation, Carlsbad, Calif.)). The cells were seeded in a 96 well plate in a medium specified above. After 24 hours, these plates were divided into 2 groups—Control group and 3 day treatment group. A test compound was added to each plate in the treatment groups at concentrations of […] as tabulated in Table 1 (in 2 μl 1 of 100% DMSO, final DMSO concentration 1% in all wells). For NCI-H460 cells, test compounds were added to each plate in the treatment groups at concentrations of 600, 300, 100, 30, 10, 3, and 1 μM (in 2 μl of 100% DMSO, final DMSO concentration 1% in all wells). The cells in the 3 day treatment group were incubated for 3 days, followed by staining with AlamarBlue. In the Control group, AlamarBlue was added to the plate at (i) day 0 and (ii) day 3 and measured to establish the control reading. […] For the NCI-H460 cells, the capacity of the cells to proliferate was measured 5 hours after addition of AlamarBlue using the same fluorescence plate reader as stated above.

SH rat prostate = test: 5 day systemic administration in male SH rats, prostate; format: in vivo; parameters: inhibition in vivo: dose or concentration left out as unconfirmed; details: for Prostate shrinkage: male SH rats, oral daily for 5 days at 50 mg/ml, day 6; for inhibition in vivo: Rattus norvegicus, po, 144 h, read-out: Prostate shrinkage
Protocol: (§3) The effect of test compounds (lonidamine and lonidamine analogs) on the SH rat prostate was determined as follows. The test compound was orally administered daily for 5 days to male, SH rat, (n=6, 14 weeks old, Charles River Labs) at 50 mg/ml concentrations (as a 0.5% carboxymethylcellulose formulation). The control rats received an equal amount of the vehicle ([…]). Blood samples were collected 2 hours after administration on day 6, for pharmokinetic analysis of the compounds. On day 6 the rats were sacrificed and the entire prostate and the individual lobes (e.g., the ventral, dorso-lateral, and anterior lobes) were removed and weighed to measure absolute weights. Relative weights of prostate and individual lobes were calculated by dividing the absolute weight by the total body weight of the […]. Relative weights of the entire prostate, the dorsal prostate, and the ventral prostate were calculated by dividing the absolute weight by the total weight of the mouse. The histomorphology of the prostate was also analyzed and compared to that of the control or untreated prostate.

testes = test: 5 day systemic administration in male SH rats, testis; format: in vivo, rat; parameters: inhibition in vivo: dose or concentration left out as unconfirmed; details: for Testis shrinkage: male SH rats, oral daily for 5 days at 50 mg/ml, day 6; for inhibition in vivo: Rattus norvegicus, po, 144 h, read-out: Testis shrinkage
[3] = 5 day systemic administration in male SH rats, pharmacokinetic blood samples; format: in vivo, rat; details: oral daily for 5 days at 50 mg/ml, blood 2 hours after administration; for concentration at 2 h: rat, in vivo, read-out: PK
Protocol: as §3

DU-145 cells = test: Antiproliferation assay 3 days, DU-145 cells; format: cell-based; details: 3 day treatment; read-out: Du-145 cell line IC50
Protocol: as §2

BPH-1 = test: Antiproliferation assay 3 days, BPH-1 cells; format: cell-based; details: 3 day treatment; read-out: BPH-1 cell line IC50
Protocol: as §2

PNt2 cells = test: Antiproliferation assay 3 days, PNt2 cells; format: cell-based; details: 3 day treatment; read-out: PNT2c cell line IC50
Protocol: as §2

PC3 cells = test: Antiproliferation assay 3 days, PC3 cells; format: cell-based, human; details: 3 day treatment; read-out: PC-3 cell line IC50
Protocol: as §2

advanced breast cancer = details: 28 evaluable patients, daily divided oral dose of 600 mg; cited from earlier work
HIF-1-alpha = details: cells cultured under hypoxia, cited from earlier work
[4] = tested on: cell lines derived from human prostate cells; details: LNCaP vs PC3 cells; cited from earlier work
[5] = tested on: primary cultures of human prostate epithelial cells; details: epithelial vs stromal cells; cited from earlier work
mouse prostate = test: Mouse study, 10 day effect of Compound 3 on prostate; format: in vivo; details: mice
Protocol: (§4) The 10 day effect of Compound 3 on the mouse prostate and its 5 day effect on mouse testis were determined as in Example 51 by using 10 mice per experiment group and the results are illustrated graphically in FIGS. 14-18.

mouse testis = test: Mouse study, 5 day effect of Compound 3 on testis; format: in vivo; details: mice
Protocol: as §4

NCI-H460 cells = test: Antiproliferation assay 3 days, NCI-H460 cells; format: cell-based; details: Homo sapiens, NCI-H460, 72 h, read-out: NCI-H460 cell line IC50
Protocol: as §2

[6] = 3 day treatment, read-out: GI50 H460 cell 3 days
[7] = read-out: GI50 H460 cell 2 hr, 2 h treatment then 3 days incubation

Structure (SMILES)	GI50 (H460 cells; [6])	GI50 (H460 cells; [7])	GI50 (LNCaP cells)	IC50 (PWR-1E cells [1])	IC50 (PWR-1E cells [2]; 3 day treatment)	Prostate shrinkage (SH rat prostate)	Testis shrinkage (testes)	PK [3]	also measured
NC(=O)c1nn(Cc2ccc(Cl)cc2Cl)c2ccccc12 [Compound 5]	20 µM	40 µM	20 µM	4 µM	5.5 µM	−8.1%	−3.5%	12 µg/mL	–
O=C(O)c1nn(Cc2ccc(Cl)cc2Cl)c2ccccc12 [Compound 12]	> 400 µM	251 µM	125 µM	20 µM	31 µM	17%	42%	153 µg/mL	IC50 (DU-145 cells): 214 µM; IC50 (BPH-1): 230 µM; IC50 (PNt2 cells): 198 µM; IC50 (PC3 cells): 195 µM
O=C(O)c1nn(Cc2ccc(Cl)cc2Cl)c2ccccc12 [lonidamine, 1-(2,4-dichlorobenzyl)-1H-indazole-3-carboxylic acid]	–	–	–	–	–	–	–	–	minor response (advanced breast cancer): 11%; partial response (advanced breast cancer): 11%; reduction of HIF-1-alpha expression/accumulation (nuclear fraction) (HIF-1-alpha; 200 micromolar): about 2 fold; reduction of HIF-1-alpha expression/accumulation (nuclear fraction) (HIF-1-alpha; higher lonidamine concentrations): more than 5 fold; apoptosis in cell lines derived from human prostate cells [4]: induces apoptosis; apoptosis in primary cultures of human prostate epithelial cells [5]: induces apoptosis
O=C(O)c1nn(Cc2c(Cl)cccc2Cl)c2ccccc12 [Compound 3]	250 µM	398 µM	180 µM	25 µM	69 µM	−2.9%	0.4%	243 µg/mL	IC50 (DU-145 cells): 224 µM; IC50 (BPH-1): 215 µM; IC50 (PNt2 cells): 257 µM; IC50 (PC3 cells): 191 µM; absolute anterior prostate weight (FIG. 16) (mouse prostate): reduction; absolute dorsal prostate weight (FIG. 15) (mouse prostate): reduction; absolute ventral prostate weight (FIG. 14) (mouse prostate): reduction; absolute left testis weight (FIG. 18) (mouse testis): reduction; absolute right testis weight (FIG. 17) (mouse testis): reduction
CN(O)C(=O)c1nn(Cc2ccc(Cl)cc2Cl)c2ccccc12 [Compound 56]	–	–	–	–	2.6 µM	–	–	–	IC50 (DU-145 cells): 3.25 µM; IC50 (BPH-1): 1.65 µM; IC50 (PNt2 cells): 1.25 µM; IC50 (PC3 cells): 4 µM
O=C(O)c1nn(Cc2ccc(Cl)cc2)c2ccc(Cl)cc12 [Compound 64]	–	–	–	–	–	–	–	–	IC50 (PWR-1E cells [2]; Homo sapiens, PWR-1E, 72 h): > 30 µM; IC50 (NCI-H460 cells): 159 µM; inhibition in vivo (SH rat prostate): -0.4%; inhibition in vivo (testes): -1.3%; concentration at 2 h [3]: 614 µg/mL
CS(=O)(=O)NC(=O)c1nn(Cc2ccc(Cl)cc2Cl)c2ccccc12 [Compound 4]	158 µM	281 µM	178 µM	18 µM	–	–	–	–	–
OCc1nn(Cc2ccc(Cl)cc2Cl)c2ccccc12 [Compound 58]	–	–	–	–	–	–	–	–	inhibition in vivo (SH rat prostate): 12.9%; inhibition in vivo (testes): 26.5%; concentration at 2 h [3]: 0 µg/mL
O=C(NO)c1nn(Cc2ccc(Cl)cc2Cl)c2ccc(Cl)cc12 [Compound 54]	–	–	–	–	1.3 µM	6.8%	0.3%	120 µg/mL	–
O=C(NO)c1nn(Cc2ccccc2)c2ccccc12 [Compound 2]	31.6 µM	400 µM	–	18 µM	18 µM	–	–	–	–
N#Cc1ccc(Cn2nc(C(=O)O)c3ccccc32)c(Cl)c1 [Compound 97]	–	–	–	–	–	–	–	–	IC50 (PWR-1E cells [2]; Homo sapiens, PWR-1E, 72 h): 135 µM; IC50 (NCI-H460 cells): > 300 µM; inhibition in vivo (SH rat prostate): 5.5%; inhibition in vivo (testes): 0.9%; concentration at 2 h [3]: 0 µg/mL
